pKi: −log10 of the molar value.
Legend:
Assay type in all cases: tissue-based
[1] = biological target: 5-hydroxytryptamine receptor 2A (Rattus norvegicus, UniProt P14842); experiment: Displacement of [3H]Ketanserin from 5HT2A receptor in Rattus norvegicus (rat) cerebral cortex by filter binding assay
[2] = biological target: T1, 5-hydroxytryptamine receptor 1A (Rattus norvegicus, UniProt P19327); experiment: Displacement of [3H]8-OH-DPAT from 5HT1A receptor in Rattus norvegicus (rat) cerebral cortex after 15 min by filter binding assay
T1 sequence (P19327 whole entry): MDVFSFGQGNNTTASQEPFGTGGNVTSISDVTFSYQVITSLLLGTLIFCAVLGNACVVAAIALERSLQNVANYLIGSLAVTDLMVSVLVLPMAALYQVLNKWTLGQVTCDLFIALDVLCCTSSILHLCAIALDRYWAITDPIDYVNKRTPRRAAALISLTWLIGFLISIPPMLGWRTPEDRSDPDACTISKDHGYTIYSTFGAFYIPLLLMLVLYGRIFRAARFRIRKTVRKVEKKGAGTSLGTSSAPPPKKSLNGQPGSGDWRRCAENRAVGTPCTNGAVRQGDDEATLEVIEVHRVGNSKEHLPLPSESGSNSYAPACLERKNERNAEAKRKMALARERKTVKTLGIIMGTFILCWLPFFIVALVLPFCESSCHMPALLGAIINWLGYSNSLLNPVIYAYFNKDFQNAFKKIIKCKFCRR

[3] = biological target: Beta-1 adrenergic receptor (Rattus norvegicus, UniProt P18090); experiment: Displacement of [3H]CGP12177 from beta1 adrenoreceptor in Rattus norvegicus (rat) cerebral cortex by liquid scintillation counting
Chain of Beta-1 adrenergic receptor (P18090 whole entry): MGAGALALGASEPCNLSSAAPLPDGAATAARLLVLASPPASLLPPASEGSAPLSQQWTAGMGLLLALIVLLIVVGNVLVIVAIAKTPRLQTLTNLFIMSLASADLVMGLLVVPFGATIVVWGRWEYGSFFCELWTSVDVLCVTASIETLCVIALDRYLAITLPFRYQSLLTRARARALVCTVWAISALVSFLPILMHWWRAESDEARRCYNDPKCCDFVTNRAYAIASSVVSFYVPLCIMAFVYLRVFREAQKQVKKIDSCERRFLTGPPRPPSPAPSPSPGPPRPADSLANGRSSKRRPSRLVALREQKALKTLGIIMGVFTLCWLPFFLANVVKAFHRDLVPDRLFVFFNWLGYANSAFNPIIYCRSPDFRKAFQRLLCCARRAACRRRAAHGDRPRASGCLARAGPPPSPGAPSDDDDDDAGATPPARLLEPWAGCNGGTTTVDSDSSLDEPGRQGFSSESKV

Chain of 5-hydroxytryptamine receptor 2A (P14842 whole entry): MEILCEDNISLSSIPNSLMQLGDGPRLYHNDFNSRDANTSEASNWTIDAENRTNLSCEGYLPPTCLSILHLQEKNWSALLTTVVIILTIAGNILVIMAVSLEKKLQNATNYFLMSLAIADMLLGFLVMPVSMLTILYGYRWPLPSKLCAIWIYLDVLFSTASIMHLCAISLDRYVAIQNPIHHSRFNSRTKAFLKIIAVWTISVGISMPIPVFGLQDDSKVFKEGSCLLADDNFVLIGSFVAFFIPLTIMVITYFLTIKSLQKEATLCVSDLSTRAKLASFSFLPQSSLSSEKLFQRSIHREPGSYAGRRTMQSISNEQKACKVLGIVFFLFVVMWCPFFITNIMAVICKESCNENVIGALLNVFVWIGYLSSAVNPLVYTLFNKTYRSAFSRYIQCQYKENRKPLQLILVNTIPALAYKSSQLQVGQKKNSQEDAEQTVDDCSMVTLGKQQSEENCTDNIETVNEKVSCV

pKi [1]: 6.47
pKi [2]: 6.43
pKi [3]: 4.41
SMILES: O=C1C2C3C=CC(C3)C2C(=O)N1OCC(O)CN1CCN(c2ccccc2)CC1 (stereo not drawn)

From ChEMBL document CHEMBL3046010, “Synthesis and pharmacological evaluation of 4-[2-hydroxy-3-(4-phenyl-piperazin-1-yl)-propoxy]-4-azatricyclo[5.2.1.02,6]dec-8-ene-3,5-dione” (Med Chem Res, 2008)
